Measured values as given in the NIST ThermoML archive (doi:10.1021/acs.jced.5b00980).
Numbers after ± are expanded uncertainties.

Columns and labels:
[1] = activity coefficient (dimensionless); of the first substance listed, at infinite dilution; xn = mol fraction of the nth substance listed; settings: 100 kPa, Liquid, Chromatography, x1 = 0
[2] = for mass density: 101.33 kPa, Liquid, Vibrating tube method

Structure (SMILES)	activity coefficient ([1]; 328.15 K)	activity coefficient ([1]; 338.15 K)	activity coefficient ([1]; 348.15 K)	activity coefficient ([1]; 358.15 K)	activity coefficient ([1]; 368.15 K)	further results
CCCCCCCCC [nonane] + CCCC[P+](CC)(CCCC)CCCC.CCOP(=O)([O-])OCC	5.79 ± 0.39	5.6 ± 0.38	5.43 ± 0.37	5.27 ± 0.36	5.13 ± 0.35	
C=CCCCCCC [oct-1-ene] + CCCC[P+](CC)(CCCC)CCCC.CCOP(=O)([O-])OCC	3.68 ± 0.25	3.6 ± 0.25	3.52 ± 0.24	3.45 ± 0.23	3.39 ± 0.23	
CCCCCCCC [octane] + CCCC[P+](CC)(CCCC)CCCC.CCOP(=O)([O-])OCC	4.87 ± 0.33	4.74 ± 0.32	4.6 ± 0.31	4.47 ± 0.3	4.37 ± 0.3	
CCCC(C)=O [pentan-2-one] + CCCC[P+](CC)(CCCC)CCCC.CCOP(=O)([O-])OCC	1.03 ± 0.06	1.03 ± 0.06	1.02 ± 0.06	1.02 ± 0.06	1.01 ± 0.06	
CCC(=O)CC [pentan-3-one] + CCCC[P+](CC)(CCCC)CCCC.CCOP(=O)([O-])OCC	1.02 ± 0.06	1.02 ± 0.06	1.02 ± 0.06	1.02 ± 0.06	1.02 ± 0.06	
CCCCC [pentane] + CCCC[P+](CC)(CCCC)CCCC.CCOP(=O)([O-])OCC	2.91 ± 0.2	2.85 ± 0.19	2.8 ± 0.19	2.75 ± 0.19	2.7 ± 0.18	
c1ccncc1 [pyridine] + CCCC[P+](CC)(CCCC)CCCC.CCOP(=O)([O-])OCC	0.544 ± 0.04	0.545 ± 0.04	0.548 ± 0.04	0.549 ± 0.04	0.55 ± 0.04	
C=Cc1ccccc1 [styrene] + CCCC[P+](CC)(CCCC)CCCC.CCOP(=O)([O-])OCC	0.971 ± 0.061	0.975 ± 0.061	0.98 ± 0.061	0.983 ± 0.062	0.987 ± 0.062	
C1CCOC1 [tetrahydrofuran] + CCCC[P+](CC)(CCCC)CCCC.CCOP(=O)([O-])OCC	0.938 ± 0.059	0.926 ± 0.059	0.919 ± 0.058	0.907 ± 0.058	0.899 ± 0.057	
c1ccsc1 [thiophene] + CCCC[P+](CC)(CCCC)CCCC.CCOP(=O)([O-])OCC	0.58 ± 0.041	0.587 ± 0.042	0.595 ± 0.042	0.601 ± 0.042	0.607 ± 0.042	
Cc1ccccc1 [toluene] + CCCC[P+](CC)(CCCC)CCCC.CCOP(=O)([O-])OCC	1.2 ± 0.08	1.19 ± 0.08	1.18 ± 0.08	1.16 ± 0.07	1.15 ± 0.07	
CCCC[P+](CC)(CCCC)CCCC.CCOP(=O)([O-])OCC [tributylethylphosphonium diethylphosphate]						mass density ([2]; 298.15 K): 996.1 ± 10 kg/m3; mass density ([2]; 303.15 K): 992.58 ± 10 kg/m3; mass density ([2]; 308.15 K): 989.06 ± 10 kg/m3; mass density ([2]; 313.15 K): 985.55 ± 10 kg/m3; mass density ([2]; 318.15 K): 982.04 ± 10 kg/m3; mass density ([2]; 323.15 K): 978.53 ± 10 kg/m3; mass density ([2]; 328.15 K): 975.03 ± 10 kg/m3; mass density ([2]; 333.15 K): 971.53 ± 10 kg/m3; mass density ([2]; 338.15 K): 968.03 ± 10 kg/m3; mass density ([2]; 343.15 K): 964.53 ± 10 kg/m3; mass density ([2]; 348.15 K): 961.01 ± 10 kg/m3; mass density ([2]; 353.15 K): 957.5 ± 10 kg/m3; mass density ([2]; 358.15 K): 954 ± 10 kg/m3; mass density ([2]; 363.15 K): 950.49 ± 10 kg/m3; mass density ([2]; 368.15 K): 946.98 ± 10 kg/m3; Glass transition temperature ([2]; Glass, DSC): -71.34 ± 1 °C
O [water] + CCCC[P+](CC)(CCCC)CCCC.CCOP(=O)([O-])OCC	0.101 ± 0.03	0.105 ± 0.03	0.109 ± 0.03	0.112 ± 0.03	0.116 ± 0.03	
